The first test has as its system HCV 1b-377-neo replicon cells. Kind of test: HCV Replicon assay, HCV 1b-377-neo replicon cells. In kind it is cell-based, HCV 1b genotype. The conditions noted are these: Hepatitis C virus, read-out: EC50 against HCV 1b (Activity or Range). Here is the method:
An HCV Replicon assay was utilized in the present disclosure, and was prepared, conducted and validated as described in commonly owned PCT/US2006/022197 and in O'Boyle et. al. Antimicrob Agents Chemother. 2005 April; 49(4):1346-53.
HCV 1b-377-neo replicon cells were used to test the currently described compound series as well as cells resistant to compound A containing a Y2065H mutation in NS5A (described in application PCT/US2006/022197). The compounds tested were determined to have more than 10-fold less inhibitory activity on cells containing the mutation than wild-type cells indicating a related mechanism of action between the two compound series. Thus, the compounds of the present disclosure can be effective to inhibit the function of the HCV NS5A protein and are understood to be as effective in combinations as previously described in application PCT/US2006/022197 and commonly owned WO/O4014852. Further, the compounds of the present disclosure can be effective against the HCV 1b genotype. It should also be understood that the compounds of the present disclosure can inhibit multiple genotypes of HCV. […] In one embodiment compounds of the present disclosure are active against the 1a, 1b, 2a, 2b, 3a, 4a, and 5a genotypes.
(In antiviral work, replicon cells carry a viral genome segment that copies itself.)
Consider `COC(=O)N[C@H](C(=O)N1CCC[C@H]1c1ncc(-c2ccc(-c3ccc4c(c3)CCCc3[nH]c([C@@H]5CCCN5C(=O)[C@@H](NC(=O)OC)C(C)C)nc3-4)cc2F)[nH]1)C(C)C` [Example 22g], for which the EC50 (in general, the concentration that produces a half-maximal response) is 0.001 nM.
Same read-out and setting: the same measure for `COC(=O)N[C@H](C(=O)N1CCC[C@H]1c1ncc(-c2cccc(-c3ccc4c(c3)-c3nc([C@@H]5CCCN5C(=O)[C@@H](NC(=O)OC)C(C)C)[nH]c3CCC4)c2)[nH]1)C(C)C` [Example 22j]: 14 nM.
The same measure, in the same setting: the value for `CCN(CC)[C@@H](C(=O)N1CCC[C@H]1c1ncc(-c2ccc(-c3ccc4c(ccc5[nH]c([C@@H]6CCCN6C(=O)[C@@H](c6ccccc6)N(CC)CC)nc54)c3)cc2)[nH]1)c1ccccc1` [Example 22u.a] was 0.01 nM; that for `COC(=O)N[C@H](C(=O)N1[C@@H]2C[C@@H]2C[C@H]1c1nc2c([nH]1)CCc1cc(-c3ccc(-c4[nH]c([C@@H]5C[C@H]6C[C@H]6N5C(=O)[C@@H](NC(=O)OC)C(C)C)nc4CC(F)(F)F)cc3)ccc1-2)C(C)C` [Example 22r.3] was 0.003 nM.
Consider `COC(=O)N[C@H](C(=O)N1CCC[C@H]1c1ncc(-c2ccc(-c3ccc4c(c3)CCc3[nH]c([C@@H]5CCCN5C(=O)[C@@H](NC(=O)OC)[C@@H](C)OC)nc3-4)cc2F)[nH]1)[C@H](C)OC` [Example 22s.c], for which the EC50 was determined as 0.02 nM.

Staying with this test, now noted: Hepatitis C virus, read-out: EC50 against HCV 1b (Activity or Range), range class.
`COC(=O)N[C@H](C(=O)N1CC(F)(F)C[C@H]1c1ncc(-c2ccc(-c3ccc4c(c3)CCCc3[nH]c([C@@H]5CCCN5C(=O)[C@@H](NC(=O)OC)C(C)C)nc3-4)cc2)[nH]1)C(C)C` [Example 22h]: the EC50 is 0.001 to 0.1 nM.
As for `CCN(CC)[C@@H](C(=O)N1[C@@H]2C[C@@H]2C[C@H]1c1ncc(-c2ccc(-c3ccc4c(c3)CCCc3[nH]c([C@@H]5C[C@H]6C[C@H]6N5C(=O)[C@@H](c5ccccc5)N(CC)CC)nc3-4)cc2)[nH]1)c1ccccc1` [Example 22c.3], the EC50 lay in the range of 0.001 to 0.1 nM.
Regarding `CCN(CC)[C@@H](C(=O)N1CCC[C@H]1c1nc2c(ccc3cc(-c4ccc5c(ccc6nc([C@@H]7CCCN7C(=O)[C@@H](NC(=O)OC)C(C)C)[nH]c65)c4)ccc32)[nH]1)c1ccccc1` [Example 24.1], the EC50 was 0.001 to 0.1 nM.
Still for that read-out and setting: the same measure for `COC(=O)N[C@H](C(=O)N1[C@@H]2C[C@@H]2C[C@H]1c1ncc(-c2ccc(-c3ccc4c(c3)CCc3[nH]c([C@@H]5C[C@H]6C[C@H]6N5C(=O)[C@@H](NC(=O)OC)C(C)C)nc3-4)cc2F)[nH]1)C(C)C` [Example 22s.1]: 0.001 to 0.1 nM; for `COC(=O)N[C@H](C(=O)N1[C@@H]2C[C@@H]2C[C@H]1c1nc2ccc3cc(-c4ccc5c(ccc6[nH]c([C@@H]7C[C@H]8C[C@H]8N7C(=O)C(c7ccccc7)N7C8CCC7CC8)nc65)c4)ccc3c2[nH]1)C(C)C` (stereo partly drawn) [Example 24.2d]: 0.001 to 0.1 nM; for `COC(=O)N[C@H](C(=O)N1CCC[C@H]1c1nc2c([nH]1)CCc1cc(-c3ccc4c(c3)CCc3[nH]c([C@@H]5CCCN5C(=O)[C@@H](NC(=O)OC)C(C)C)nc3-4)ccc1-2)C(C)C` [Example 22r.4]: 0.001 to 0.1 nM.
Still for that read-out and setting: the same measure for `COC(=O)N[C@H](C(=O)N1CCC[C@H]1c1ncc(-c2ccc(-c3ccc4c(c3)OCc3[nH]c([C@@H]5CCCN5C(=O)[C@@H](NC(=O)OC)C(C)C)nc3-4)cc2)[nH]1)C(C)C` [Example 22r.b]: 0.001 to 0.1 nM; for `CCN(CC)[C@@H](C(=O)N1CC(F)(F)C[C@H]1c1ncc(-c2ccc(-c3ccc4c(c3)CCCc3[nH]c([C@@H]5CCCN5C(=O)[C@@H](c5ccccc5)N(CC)CC)nc3-4)cc2)[nH]1)c1ccccc1` [Example 22h.1]: 0.001 to 0.1 nM.
For `COC(=O)N[C@H](C(=O)N1CCC[C@H]1c1nc2c([nH]1)CCCc1cc(-c3ccc(-c4cnc([C@@H]5CCCN5C(=O)CN(C)C)[nH]4)cc3)ccc1-2)C(C)C` [Example 24.a], the EC50 is 0.001 to 0.1 nM.
Same read-out and setting: the same measure for `COC(=O)N[C@@H](C(=O)N1CCC[C@H]1c1ncc(-c2ccc(-c3ccc4c(c3)CCCc3[nH]c([C@@H]5CCCN5C(=O)[C@H](NC(=O)OC)c5ccccc5)nc3-4)cc2)[nH]1)c1ccccc1` [Example 22.3]: 0.001 to 0.1 nM; for `COC(=O)N[C@H](C(=O)N1[C@@H]2C[C@@H]2C[C@H]1c1ncc(-c2ccc(-c3ccc4c(c3)CCc3[nH]c([C@@H]5C[C@H]6C[C@H]6N5C(=O)[C@@H](NC(=O)OC)C(C)C)nc3-4)cc2)[nH]1)C(C)C` [Example 22r.2]: 0.001 to 0.1 nM.
On the same count and under the same terms, the value for `COC(=O)N[C@H](C(=O)N1CCC[C@H]1c1ncc(-c2ccc(-c3ccc4c(c3)CCCc3c-4nc([C@@H]4CCCN4C(=O)[C@@H](NC(=O)OC)C(C)C)n3O)cc2)[nH]1)C(C)C` [Example 22n] was 0.001 to 0.1 nM; that for `COC(=O)N[C@@H](C)C(=O)N1CCC[C@H]1c1ncc(-c2ccc(-c3ccc4c(c3)CCCc3[nH]c([C@@H]5CCCN5C(=O)[C@@H](NC(=O)OC)C(C)C)nc3-4)cc2)[nH]1` [Example 24.b] was 0.001 to 0.1 nM.
`COC(=O)N[C@H](C(=O)N1CCC[C@H]1c1ncc(-c2ccc(-c3ccc4c(c3)CCCCc3[nH]c([C@@H]5CCCN5C(=O)[C@@H](NC(=O)OC)C(C)C)nc3-4)cc2)[nH]1)C(C)C` [Example 22x.1]: the EC50 lay in the range of 0.001 to 0.1 nM.
On the same count and under the same terms, the same measure for `COC(=O)N[C@H](C(=O)N1[C@@H]2C[C@@H]2C[C@H]1c1nc2c([nH]1)CCc1cc(-c3ccc4c(c3)CCc3[nH]c([C@@H]5C[C@H]6C[C@H]6N5C(=O)[C@@H](NC(=O)OC)C(C)C)nc3-4)ccc1-2)C(C)C` [Example 22r.5]: 0.001 to 0.1 nM; for `COC(=O)N[C@H](C(=O)N1[C@@H]2C[C@@H]2C[C@H]1c1nc2c([nH]1)-c1ccc(-c3ccc4c(ccc5[nH]c([C@@H]6C[C@H]7C[C@H]7N6C(=O)[C@@H](NC(=O)OC)C(C)C)nc54)c3)cc1CC2)C(C)C` [Example 22u.4]: 0.001 to 0.1 nM.
On to `COC(=O)N[C@H](C(=O)N1CCC[C@H]1c1ncc(-c2ccc(-c3ccc4c(c3)CCc3[nH]c([C@@H]5CC(F)(F)CN5C(=O)[C@@H](NC(=O)OC)C(C)C)nc3-4)cc2)[nH]1)C(C)C` [Example 22t.1], for which the EC50 is 0.001 to 0.1 nM.
On the same count and under the same terms, the same measure for `CCN(CC)[C@@H](C(=O)N1CC(F)(F)C[C@H]1c1ncc(-c2ccc(-c3ccc4c(c3)CCc3[nH]c([C@@H]5CCCN5C(=O)[C@@H](c5ccccc5)N(CC)CC)nc3-4)cc2)[nH]1)c1ccccc1` [Example 22t.a]: 0.001 to 0.1 nM.
Same read-out and setting: the same measure for `COC(=O)N[C@H](C(=O)N1CCC[C@H]1c1nc2ccc3cc(-c4ccc5c(ccc6[nH]c([C@@H]7CCCN7C(=O)[C@H](O)c7ccccc7)nc65)c4)ccc3c2[nH]1)C(C)C` [Example 24.1d]: 0.001 to 0.1 nM.
For `COC(=O)N[C@H](C(=O)N1CCC[C@H]1c1nc2c(ccc3cc(-c4ccc5c(ccc6nc([C@@H]7CCCN7C(=O)[C@@H](NC(=O)OC)C(C)C)[nH]c65)c4)ccc32)[nH]1)C(C)C` [Example 22u.2], the EC50 was in the range of 0.001 to 0.1 nM.
On to `CCN(CC)[C@@H](C(=O)N1CCC[C@H]1c1ncc(-c2ccc(-c3ccc4c(ccc5[nH]c([C@@H]6CC(F)(F)CN6C(=O)[C@@H](c6ccccc6)N(CC)CC)nc54)c3)cc2)[nH]1)c1ccccc1` [Example 22w.1a], for which the EC50 is 0.001 to 0.1 nM.
For the compound `COC(=O)N[C@H](C(=O)N1CCC[C@H]1c1nc2ccc3cc(-c4ccc5c(ccc6[nH]c([C@@H]7CCCN7C(=O)[C@@H](NC(=O)OC)C7CCOCC7)nc65)c4)ccc3c2[nH]1)C(C)C` [Example 24.1b], the EC50 lay in the range of 0.001 to 0.1 nM.
The same measure, in the same setting: the value for `COC(=O)N[C@H](C(=O)N1CCC[C@H]1c1ncc(-c2ccc(-c3ccc4c(c3)CCCc3[nH]c([C@@H]5CCCN5C(=O)[C@@H](NC(=O)OC)[C@@H](C)OC)nc3-4)cc2F)[nH]1)[C@H](C)OC` [Example 22g.3] was 0.001 to 0.1 nM; that for `COC(=O)N[C@H](C(=O)N1CCC[C@H]1c1ncc(-c2ccc(-c3ccc4c(c3)CCc3[nH]c([C@@H]5CCCN5C(=O)[C@@H](NC(=O)OC)C(C)C)nc3-4)cc2F)[nH]1)C(C)C` [Example 22s] was 0.001 to 0.1 nM.
Same read-out and setting: the value for `COC(=O)N[C@H](C(=O)N1[C@@H]2C[C@@H]2C[C@H]1c1nc2ccc3cc(-c4ccc5c(ccc6[nH]c([C@@H]7C[C@H]8C[C@H]8N7C(=O)[C@@H](NC(=O)OC)C7CCOCC7)nc65)c4)ccc3c2[nH]1)C(C)C` [Example 24.2b] was 0.001 to 0.1 nM; that for `CCN(CC)[C@@H](C(=O)N1[C@@H]2C[C@@H]2C[C@H]1c1ncc(-c2ccc(-c3ccc4c(c3)CCc3[nH]c([C@@H]5C[C@H]6C[C@H]6N5C(=O)[C@@H](c5ccccc5)N(CC)CC)nc3-4)cc2)[nH]1)c1ccccc1` [Example 22r.2a] was 0.001 to 0.1 nM; that for `CCN(CC)[C@@H](C(=O)N(C)[C@@H](C)c1nc2c([nH]1)CCCc1cc(-c3ccc(-c4cnc([C@@H]5CCCN5C(=O)[C@@H](c5ccccc5)N(CC)CC)[nH]4)cc3)ccc1-2)c1ccccc1` [Example 22b.1] was 0.001 to 0.1 nM.
The same measure, in the same setting: the value for `COC(=O)N[C@@H](C(=O)N(C)[C@@H](C)c1nc2c([nH]1)CCOc1cc(-c3ccc(-c4cnc([C@@H]5CCCN5C(=O)[C@H](NC(=O)OC)c5ccccc5)[nH]4)cc3)ccc1-2)c1ccccc1` [Example 22b.3] was 0.001 to 0.1 nM.

Values taken from patent publication US8147818B2, “Hepatitis C virus inhibitors” (Bristol-Myers Squibb Company, priority 2008, dated 2012).
